For one series, the target named is T1, SF3b complex (Homo sapiens, UniProt O75533+Q7RTV0).
T1 construct: endogenous in cells; host or cells: nuclear extracts
Put plainly: SF3B1 binding / scintillation proximity assay (SPA). To be noted: competition with 2.5 nM [3H]-pladienolide B probe. On the procedure: A scintillation proximity assay was performed to measure the binding affinity of compounds (“payloads”) to the SF3b complex. Batch immobilization of anti-SF3B1 antibody (MBL) to anti-mouse PVT SPA scintillation beads (PerkinElmer) was prepared. For every 2.5 mg of nuclear extracts, 5 μg of anti-SF3B1 antibody and 1.5 mg of beads were mixed in 150 μL PBS. The antibody-bead mixture was incubated for 30 min at room temperature (RT) and centrifuged at 18,000 g for 5 min. 150 μL PBS was used to resuspend every 1.5 mg antibody-bead mixture. The beads were suspended and added to the prepared nuclear extracts. The slurry was incubated for 2 hours at 4° C. with gentle mixing. The beads were then collected by centrifuging at 18,000 g for 5 min, and washed twice with PBS+0.1% Triton X-100. After a final centrifugation step, every 1.5 mg of beads was suspended with 150 μL of PBS. SF3b complexes were tested for [^3H]-labeled pladienolide B probe binding ([^3H]-PB), synthesized as previously described (Kotake et al. (2007) Nat Chem Biol. 3(9):570-5). 100 μL binding reactions were prepared with 50 μL bead slurry and by adding varying concentrations of PB or PB-OH, and after 30 min pre-incubation, 2.5 nM of [^3H]-PB was added. The mixture was incubated for 30 min, and luminescence signals were read using a MicroBeta2 Plate Counter (PerkinElmer). […]
For orientation: In a scintillation proximity assay essentially only radioactivity close to the scintillant gives light.

A short description of a further series: Caco-2 permeability. Type of series: in vitro ADME. To be noted: human. The procedure: Caco-2 cells were cultured for 21 days in transwell 24-well plates at 37° C., 95% humidity, 5% CO2. Integrity of cell monolayer was confirmed by TEER (transepithelial electrical resistance) and Lucifer yellow. Payloads were spiked in duplicate at 10 μM, separately, on both sides of the cell monolayer. Permeability rates from the apical to basolateral (A-B) direction and the basolateral to apical (B-A) direction were determined by sampling aliquots from both chambers immediately after treatment (t=0) and following incubation for 2 hours. Samples were protein precipitated with organic solvent containing internal standard and analyzed by LC-MS/MS (SCIEX; API 5500). The area ratio responses of payload/internal standard over time in both directions were used to generate permeability (cm/sec) values. Efflux ratio was calculated by dividing B-A/A-B. Control compounds for low and high permeability and efflux behaved as expected.
For orientation: Caco-2 cells form a polarised layer with tight junctions and transporters.

The nature of the next series: PAMPA permeability. Type of series: in vitro ADME. To be noted: read-out: Stability, Mean, Perm PAMPA. (In general: PAMPA measures passive passage across an artificial lipid membrane.)
The test system of the next series is MOLP8 cells. Put plainly: CellTiter-Glo cell viability, MOLP8. The series is classed as cell-based, human.
The test system of another series is MM1.S cells. The series can be described thus: CellTiter-Glo cell viability, MM1.S. The series is classed as cell-based, human. To be noted: MM1.S, 96 h.
For series [1], the system named is splicing of Ad2.2 pre-mRNA in HeLa nuclear extract. Put plainly: In vitro splicing (IVS), qPCR readout, Ad2.2 substrate. Type of series: biochemical. The procedure:
(§1) To evaluate payload activity in a cell-free system, an in vitro splicing assay was performed. The payloads were incubated with nuclear extracts and pre-mRNA substrate minigenes.
(§2) HeLa nuclear extract preparation: HeLa S3 cell pellets were resuspended in hypotonic buffer (10 mM HEPES pH 7.9, 1.5 mM MgCl2, 10 mM KCl, 0.2 mM PMSF, 0.5 mM DTT) and the suspension was brought up to a total of 5 packed cell volume (PCV). After centrifugation, the supernatant was discarded, and the cells were brought up to 3 PCV with hypotonic buffer and incubated on ice for 10 min. Cells were lysed using a dounce homogenizer and then centrifuged. The supernatant was discarded, and the pellet was resuspended with ½ packed nuclear volume (PNV) of low salt buffer (20 mM HEPES pH 7.9, 1.5 mM MgCl2, 20 mM KCl, 0.2 mM EDTA, 25% glycerol, 0.2 mM PMSF, 0.5 mM DTT), followed by ½ PNV of high salt buffer (same as low salt buffer except 1.4 M KCl). The nuclei were gently mixed for 30 min before centrifuging. The supernatant (nuclear extract) was then dialyzed into storage buffer (20 mM HEPES pH 7.9, 100 mM KCl, 0.2 mM EDTA, 20% glycerol, 0.2 mM PMSF, 0.5 mM DTT). Protein concentration was determined using NanoDrop 8000 UV-Vis spectrophotometer (ThermoFisher Scientific). […]

In series [2] the test system is splicing of Ad2.1 pre-mRNA in HeLa nuclear extract. Put plainly: In vitro splicing (IVS), qPCR readout, Ad2.1 substrate. Type of series: biochemical. On the procedure:
as §1, §2

The subject of a further series is OPM2 cells. The series can be described thus: CellTiter-Glo cell viability, OPM2 (normal serum). Type of series: cell-based, human.
A further series concerns MM1.R cells. Put plainly: CellTiter-Glo cell viability, MM1.R. Type of series: cell-based, human. To be noted: 96 h.

Consider `CC[C@H](O)[C@@H](C)[C@H]1O[C@@H]1C[C@@](C)(O)/C=C/C=C(\C)[C@H]1OC(=O)C[C@H](O)CC[C@@](C)(OC(C)=O)[C@@H](OC(=O)N2CCNCC2)/C=C/[C@@H]1C` [D2, (2S,3S,6S,7R,10R,E)-7-acetoxy-10-hydroxy-2-((R,2E,4E)-6-hydroxy-7-((2R,3R)-3-((2R,3S)-3-hydroxypentan-2-yl)oxiran-2-yl)-6-methylhepta-2,4-dien-2-yl)-3,7-dimethyl-12-oxooxacyclododec-4-en-6-ylpiperazine-1-carboxylate], for which the IC50 – broadly, the midpoint of a concentration-inhibition curve – was 12.6 nM at SF3b complex, 119 nM in [1] and 27.3 nM in series [2]. The efflux ratio (usually the permeability from basolateral to apical divided by that in the opposite direction, in the common usage) at 2 h, 10 μM in the series “Caco-2 permeability” (B-A/A-B) is 9.4. Also, the Papp A→B at 2 h, 10 μM in “Caco-2 permeability” (apical to basolateral, 10 μM, 2 hours, read-out: Permeability, Mean, Caco-2 A-B Perm) was 0.94 ×10⁻⁶ cm/s. The Papp B→A at 2 h, 10 μM in “Caco-2 permeability” (basolateral to apical, 10 μM, 2 hours, read-out: Permeability, Mean, Caco-2 B-A Perm) was determined as 0.1 ×10⁻⁶ cm/s. Besides, in the series “PAMPA permeability”, the Papp is < 0.1 ×10⁻⁶ cm/s. Besides, the GI50 (in general, the concentration giving 50% growth inhibition) in the series on MOLP8 cells (Homo sapiens, MOLP-8, 96 h, read-out: CTGlo Mean GI50 MOLP8 96 h) was 1.15 nM; in the series with MM1.S cells (Homo sapiens, read-out: CTGlo Mean GI50 MM1.S 96 h), 1.69 nM; in the series on OPM2 cells (Homo sapiens, OPM-2, 96 h, read-out: CTGlo Mean GI50 OPM2 96 h), 1.69 nM; with MM1.R cells (Homo sapiens, MM.1R, read-out: CTGlo Mean GI50 MM1.R 96 h), 7.59 nM. The “CTGlo Mean LD50 MOLP8 96 h” value with MOLP8 cells (payload alone, MOLP8, 96 h) is recorded as 12.99 nM. Further, the “CTGlo Mean LD50 MM1.S 96 h” value with MM1.S cells (payload alone) was 7.74 nM. The “CTGlo Mean LD50 OPM2 96 h” value in the series with OPM2 cells (payload alone, OPM2, 96 h) is given as 7.74 nM. Also, the “CTGlo Mean LD50 MM1.R 96 h” value in the series with MM1.R cells (payload alone, MM1.R) amounted to 21.4 nM.

The values above are taken from patent US12043670B2, “Anti-BCMA antibody-drug conjugates and methods of use” (Eisai R&D Management Co., Ltd., priority 2020, dated 2024).
